According to US6784165B1, “Treatment of heart rhythm disturbances with N6-substituted-5′-(N-substituted) carboxamidoadenosines” (Aderis Pharmaceuticals, Inc., priority 1999, dated 2004):

Key:
[1] = Oral bioavailability estimated from bradycardia AUC oral vs intravenous in conscious rats; assay type: in vivo, rat; conditions: male, Sprague-Dawley, rat, in vivo
Excerpt: (§1) Concentration dose-effect curve data were fitted to a sigmoid curve using Graphpad PRIZM™ software to obtain the concentration or dose of test compound that produces 50% of the maximal obtainable response, in vitro EC50 or in vivo ED50 values, for activation of the adenosine A1 receptor. Responses measured to each dose were the plateau negative inotropic response to cumulative additions of test compound in the isolated left atria and the peak bradycardia in response to bolus intravenous injections of test compound in conscious rats. Oral bioavailability was estimated from pharmacodynamic responses using the expression: (Response AUCoral/Response AUCiv)(Doseiv/Doseoral), where Response AUC is the area under the curve for test compound-induced bradycardia over time.
(§2) Male Sprague-Dawley rats were anesthetized with sodium pentobarbital 50 mg/kg i.p., and indwelling catheters were surgically implanted in the carotid artery and jugular vein two days prior to each experiment. During all subsequent experiments, rats were conscious and unrestrained. The carotid artery cannula was attached to a pressure transducer and blood pressure was recorded continuously throughout each experiment using a Grass polygraph. Heart rate was derived from the blood pressure signal using a Grass tachygraph. The measured parameters were allowed from 30 to 90 minutes to stabilize before the administration of test compound.
(§3) Test compounds were administered either by oral gavage using a curved, bulbed oral dosing cannula, or by intravenous administration via the jugular vein indwelling catheter. Rats dosed orally were fasted overnight before dosing, with water available ad libitum. Because the heart rate responses following intravenous administration of test compound rapidly returned to baseline, more than one dose of test compound could be administered to each rat. However, the responses to oral administration of test compounds were of a prolonged duration and therefore only a single dose could be administered to each rat.
A comparison of the area under the bradycardia vs. time curve (AUC) following intravenous administration with the AUC following oral administration was used as a measure of oral bioavailability.

[2] = tested on: conscious rats; assay: Heart rate and blood pressure in conscious unrestrained rats (intravenous or oral); assay type: in vivo, rat
Method: as §2
Compound A was administered by intravenous administration via the jugular vein indwelling catheter or by oral gavage using a curved, bulbed oral dosing cannula. Food and water were available ad libitum.

[3] = tested on: guinea pig isolated spontaneously beating heart; assay: Guinea pig isolated spontaneously beating heart (Langendorff): heart rate and AV interval
Method: (§4) Guinea pig isolated hearts were prepared according to the method of Langendorff in which the coronary vasculature was perfused in a retrograde fashion at constant pressure via the aorta. Compound A was administered to the spontaneously beating hearts by infusion into the perfusion line supplying buffer to the coronary vasculature. The concentration of Compound A was adjusted by changes in the infusion rate and/or changes in the concentration of infusion solutions. The concentration of Compound A present in the perfusate was calculated by dividing the rate of Compound A infused by the coronary flow rate. Spontaneously beating heart rate and AV interval were recorded.

[4] = tested on: guinea pig isolated heart; assay: Guinea pig isolated electrically paced heart: effect of heart rate on AV interval and heart block
Method: as §4
Guinea pig isolated hearts were prepared according to the methods described in Example 5. In the first portion of the experiment designed to determine the effect of heart rate on the negative dromotropic activity of Compound A, hearts were allowed to beat spontaneously or electrically paced either at 200 beats per minute (approximately 20% above the spontaneous rate) or at 300-360 beats per minute (approximately 80% above the spontaneous rate). Atrioventricular (AV) conduction interval (AV interval) was determined as the time from the atrial stimulus to the beginning of ventricular depolarization. The AV interval measurements were performed at each pacing rate with increased concentrations of Compound A as described in Example 5. Upon electrical pacing at 200 beats per minute, Compound A at a mean concentration of 3.9 nM produced a mean maximal 58% increase in AV interval, and heart block at a mean minimal concentration of 5.1 nM. […] The results are summarized in the table below, with data from spontaneously beating hearts included for comparative purposes: […]

[5] = target: T1, adenosine A1 receptor (Rattus norvegicus, UniProt P25099); assay: Peak bradycardia after bolus intravenous injection in conscious rats; assay type: in vivo; design: from tissue; host or cells: whole animal (conscious Sprague-Dawley rats); conditions: rat, bolus intravenous injections, read-out: ED50
T1 sequence (P25099 1-326): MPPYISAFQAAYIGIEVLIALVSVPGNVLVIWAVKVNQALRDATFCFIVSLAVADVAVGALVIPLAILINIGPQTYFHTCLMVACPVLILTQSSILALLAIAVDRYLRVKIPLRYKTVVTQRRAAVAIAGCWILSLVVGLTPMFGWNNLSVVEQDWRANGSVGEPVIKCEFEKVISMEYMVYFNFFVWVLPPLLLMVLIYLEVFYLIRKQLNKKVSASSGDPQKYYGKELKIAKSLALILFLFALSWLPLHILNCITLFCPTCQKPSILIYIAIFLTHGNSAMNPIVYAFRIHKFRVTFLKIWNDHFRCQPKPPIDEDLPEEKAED
Excerpt: as §1, §2, §3

[6] = 0.1 μg/kg/min intravenously for 120 minutes
[7] = heart rate spontaneous (appro. 170 bpm)
[8] = spontaneously beating guinea pig heart

In the case of `CCNC(=O)[C@H]1O[C@@H](n2cnc3c(NC4CCCC4)ncnc32)[C@H](O)[C@@H]1O` [Compound A, ethyl N^6-cyclopentyladenosine-5′-uronamide], the bioavailability [1] is reported as 53%, the mean blood pressure [2, 6] is reported as “remained unchanged” and the “mean decrease in heart rate” value [2, 6] is reported as 34%. For the same compound, the “mean decrease in heart rate” value ([2]; 100 μg/kg oral) was 40%, the “change in blood pressure” value ([2]; intravenous dose range 0.05 μg/kg/min to 0.1 μg/kg/min) was “no change” and the “ED50 for induction of bradycardia” value ([2]; intravenously for 120 minutes, conscious rats) was 0.1 µg/kg/min. The “change in blood pressure” value ([2]; oral dose range 30 μg/kg to 100 μg/kg) was “no change”, the EC50 ([3]; Cavia porcellus, spontaneously beating guinea pig heart, read-out: EC50 for decrease in heart rate) was 3.2 nM and the “Mean Concentration of Compound A Required to Produce Maximal AV Interval” value [3, 7] was 11.7 nM. For the same compound, the “Mean Minimal Concentration of Compound A Required to Produce Heart Block” value (shortened to “Mean Minimal Concentration”) [3, 7] was 13 nM, the “maximal decrease in heart rate” value [3, 8] was 58% and the “maximal increase in AV interval over basal values” [3, 8] was 34%. The “mean maximal increase in AV interval” value ([4]; paced at 200 beats per minute, at 3.9 nM) was 58%, the “Mean Concentration of Compound A Required to Produce Maximal AV Interval” value ([4]; paced at 200 bpm) was 3.9 nM and the “Mean Minimal Concentration” value ([4]; paced at 200 bpm) was 5.1 nM. For the same compound, the “mean maximal increase in AV interval” value ([4]; paced at 300-360 beats per minute, at 1.45 nM) was 20%, the “Mean Concentration of Compound A Required to Produce Maximal AV Interval” value ([4]; paced at 300-360 bpm) was 1.45 nM and the “Mean Minimal Concentration” value ([4]; paced at 300-360 bpm) was 2.1 nM. It also gave an ED50 [5] of 0.0083 µmol/kg.
